Laboratory results taken from patent US20170008888A1 (KYORIN PHARMACEUTICAL CO., LTD., priority 2014, published 2017).
Like-named read-outs stand apart in the source and are kept apart here.

Assays:
Assay type in all cases: binding
AurA = molecular target: T1, AurA (Homo sapiens, UniProt O14965); test: Probe-based (AX9989) kinase profiling in Jurkat lysate: AurA; conditions: for inhibition at 0.1 µM: screening concentration 0.1 μM
T1 construct: screened for activity against several kinases in Jurkat cells; endogenous in cells; host or cells: Jurkat cell lysate
T1 sequence (O14965 1-403): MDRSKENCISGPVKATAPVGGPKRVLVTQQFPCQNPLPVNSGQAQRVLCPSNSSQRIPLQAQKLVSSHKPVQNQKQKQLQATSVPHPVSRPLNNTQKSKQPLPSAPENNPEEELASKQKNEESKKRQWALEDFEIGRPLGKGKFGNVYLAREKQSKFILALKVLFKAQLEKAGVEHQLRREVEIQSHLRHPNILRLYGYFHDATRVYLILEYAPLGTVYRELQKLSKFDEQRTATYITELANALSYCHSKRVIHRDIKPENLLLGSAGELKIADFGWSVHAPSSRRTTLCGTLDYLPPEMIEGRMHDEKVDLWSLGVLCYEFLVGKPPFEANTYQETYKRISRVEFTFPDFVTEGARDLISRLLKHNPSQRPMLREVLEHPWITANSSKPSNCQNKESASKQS
Summary of the method: (§1)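 Compounds were pre-incubated for 15 min at room temperature with gel-filtered Jurkat cell lysate supplemented with 20 mM MnCl2, after which the acyl phosphate ATP probe AX9989 was added at 5 μM final. Labeled active-site peptides were enriched after tryptic digestion and measured by LC/MS, with percent inhibition taken relative to samples without compound.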

AurB or AurC = test: Probe-based (AX9989) kinase profiling in Jurkat lysate: AurB or AurC
Summary of the method: as §1

AMPKa1 or AMPKa2 = test: Probe-based (AX9989) kinase profiling in Jurkat lysate: AMPKa1 or AMPKa2
Summary of the method: as §1

TAO2 = molecular target: T2, TAO2 (Homo sapiens, UniProt Q9UL54); test: Probe-based (AX9989) kinase profiling in Jurkat lysate: TAO2; conditions: for inhibition at 0.1 µM: screening concentration 0.1 μM
T2 construct: screened for activity against several kinases in Jurkat cells; endogenous in cells; host or cells: Jurkat cell lysate
T2 sequence (Q9UL54 1-1235): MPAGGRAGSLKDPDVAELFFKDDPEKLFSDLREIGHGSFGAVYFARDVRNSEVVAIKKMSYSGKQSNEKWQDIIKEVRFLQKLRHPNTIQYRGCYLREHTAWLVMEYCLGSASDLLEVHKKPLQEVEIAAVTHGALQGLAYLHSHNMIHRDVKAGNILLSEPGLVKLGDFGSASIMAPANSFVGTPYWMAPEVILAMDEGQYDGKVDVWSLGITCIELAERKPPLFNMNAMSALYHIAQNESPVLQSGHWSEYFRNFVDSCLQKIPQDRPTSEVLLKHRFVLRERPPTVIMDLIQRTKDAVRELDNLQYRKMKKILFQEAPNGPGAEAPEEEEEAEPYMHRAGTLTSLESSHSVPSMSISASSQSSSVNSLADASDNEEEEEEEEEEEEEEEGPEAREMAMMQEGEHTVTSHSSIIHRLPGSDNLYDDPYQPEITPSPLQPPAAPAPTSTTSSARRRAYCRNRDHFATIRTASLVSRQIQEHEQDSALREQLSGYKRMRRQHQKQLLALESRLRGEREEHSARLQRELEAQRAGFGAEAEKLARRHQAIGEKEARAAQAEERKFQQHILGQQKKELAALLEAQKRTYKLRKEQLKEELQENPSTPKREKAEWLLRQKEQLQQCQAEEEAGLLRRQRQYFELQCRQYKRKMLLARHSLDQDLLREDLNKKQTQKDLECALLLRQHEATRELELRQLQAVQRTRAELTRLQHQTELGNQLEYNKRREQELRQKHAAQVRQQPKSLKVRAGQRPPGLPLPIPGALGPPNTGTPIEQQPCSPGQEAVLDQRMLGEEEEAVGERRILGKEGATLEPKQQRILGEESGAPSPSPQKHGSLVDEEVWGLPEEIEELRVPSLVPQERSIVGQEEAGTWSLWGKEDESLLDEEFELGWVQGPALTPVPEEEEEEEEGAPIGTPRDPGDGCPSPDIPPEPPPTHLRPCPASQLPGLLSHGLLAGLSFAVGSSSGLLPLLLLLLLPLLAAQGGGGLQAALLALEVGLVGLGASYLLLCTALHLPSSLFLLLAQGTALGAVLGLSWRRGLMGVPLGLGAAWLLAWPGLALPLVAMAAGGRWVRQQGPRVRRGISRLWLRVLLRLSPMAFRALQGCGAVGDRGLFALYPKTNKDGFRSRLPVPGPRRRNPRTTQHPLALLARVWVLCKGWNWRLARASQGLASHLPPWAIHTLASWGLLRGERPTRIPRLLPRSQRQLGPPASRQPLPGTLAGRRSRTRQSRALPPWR
Summary of the method: as §1

[1] = screening concentration 1.0 μM, read-out: Kinase inhibition % at indicated screening concentration: AurA
[2] = screening concentration 1.0 μM, read-out: Kinase inhibition % at indicated screening concentration: TAO2
[3] = screening concentration 1 μM, read-out: AurA Inhibition % at indicated screening concentration
[4] = screening concentration 1 μM, read-out: TAO2 Inhibition % at indicated screening concentration
[5] = read-out: Kinase inhibition % at indicated screening concentration: AurA
[6] = read-out: Kinase inhibition % at indicated screening concentration: TAO2
[7] = screening concentration 10.0 μM

SMILES	inhibition at 1 µM (AurA; [3])	AurB or AurC Inhibition % at indicated screening concentration (AurB or AurC; screening concentration 1 μM)	AMPKa1 or AMPKa2 Inhibition % at indicated screening concentration (AMPKa1 or AMPKa2; screening concentration 1 μM)	inhibition at 1 µM (TAO2; [4])	inhibition at 0.1 µM (AurA; [5])	Kinase inhibition % at indicated screening concentration: AurB or AurC (AurB or AurC; screening concentration 0.1 μM)	Kinase inhibition % at indicated screening concentration: AMPKa1 or AMPKa2 (AMPKa1 or AMPKa2; screening concentration 0.1 μM)	inhibition at 0.1 µM (TAO2; [6])	also measured
CCOc1cc(C(=O)NCCN2CCCC2)ccc1Nc1cc2c(cn1)N(C)C(=O)c1ccccc1N2C [Compound 105]	–	–	–	–	–	–	–	–	inhibition at 1 µM (AurA; [1]): ≤ 35%; Kinase inhibition % at indicated screening concentration: AurB or AurC (AurB or AurC; screening concentration 1.0 μM): E (E is ≦35%); Kinase inhibition % at indicated screening concentration: AMPKa1 or AMPKa2 (AMPKa1 or AMPKa2; screening concentration 1.0 μM): E (E is ≦35%); inhibition at 1 µM (TAO2; [2]): ≤ 35%
CCOc1cc(C(=O)N2CC[C@H](C#N)C2)ccc1Nc1cc2c(cn1)N(C)C(=O)c1ccccc1N2C [Compound T22]	≤ 35%	E (E is ≦35%)	E (E is ≦35%)	≤ 35%	–	–	–	–	–
CCOc1cc(C(=O)N2CCC(N3CCN(C)CC3)CC2)ccc1Nc1cc2c(cn1)N(C)C(=O)c1occc1N2C [Compound 65]	–	–	–	–	≤ 35%	E (E is ≦35%)	E (E is ≦35%)	≤ 35%	–
CCOc1cc(C(=O)N2CCC(N3CC[C@H](O)C3)CC2)ccc1Nc1cc2c(cn1)N(C)C(=O)c1ccccc1N2C [Compound T11]	≤ 35%	E (E is ≦35%)	E (E is ≦35%)	≤ 35%	–	–	–	–	–
CCOc1cc(C(=O)N2CCNC[C@H]2C)ccc1Nc1cc2c(cn1)N(C)C(=O)c1ccccc1N2C [Compound 82]	–	–	–	–	≤ 35%	E (E is ≦35%)	E (E is ≦35%)	≤ 35%	–
CCOc1cc(C(=O)N2CCN(CCN(C)C)CC2)ccc1Nc1cc2c(cn1)N(C)C(=O)c1ccccc1N2C [Compound T14]	≤ 35%	E (E is ≦35%)	E (E is ≦35%)	≤ 35%	–	–	–	–	–
CCOc1cc(C(=O)NCC2CC2)ccc1Nc1cc2c(cn1)N(C)C(=O)c1ccccc1N2C [Compound 57]	–	–	–	–	–	–	–	–	inhibition at 1 µM (AurA; [1]): ≤ 35%; Kinase inhibition % at indicated screening concentration: AurB or AurC (AurB or AurC; screening concentration 1.0 μM): E (E is ≦35%); Kinase inhibition % at indicated screening concentration: AMPKa1 or AMPKa2 (AMPKa1 or AMPKa2; screening concentration 1.0 μM): E (E is ≦35%); inhibition at 1 µM (TAO2; [2]): ≤ 35%
CCOc1cc(C(=O)N2CCC(N3CCN(C)CC3)CC2)ccc1Nc1cc2c(cn1)N(C)C(C(F)(F)F)c1ccccc1N2C (centres unmarked) [Compound T47]	–	–	–	–	–	–	–	–	inhibition at 10 µM (AurA; screening concentration 10 μM, read-out: AurA Inhibition % at indicated screening concentration): ≤ 35%; AurB or AurC Inhibition % at indicated screening concentration (AurB or AurC; screening concentration 10 μM): E (E is ≦35%); AMPKa1 or AMPKa2 Inhibition % at indicated screening concentration (AMPKa1 or AMPKa2; screening concentration 10 μM): E (E is ≦35%); inhibition at 10 µM (TAO2; screening concentration 10 μM, read-out: TAO2 Inhibition % at indicated screening concentration): ≤ 35%
CN1C(=O)c2occc2N(C)c2cc(N[C@H]3CC[C@H](N)CC3)ncc21 [Compound 53]	–	–	–	–	–	–	–	–	inhibition at 1 µM (AurA; [1]): ≤ 35%; Kinase inhibition % at indicated screening concentration: AurB or AurC (AurB or AurC; screening concentration 1.0 μM): E (E is ≦35%); Kinase inhibition % at indicated screening concentration: AMPKa1 or AMPKa2 (AMPKa1 or AMPKa2; screening concentration 1.0 μM): E (E is ≦35%); inhibition at 1 µM (TAO2; [2]): ≤ 35%
CCOc1cc(C(=O)N2CCC(NC(C)C)C2)ccc1Nc1cc2c(cn1)N(C)C(=O)c1ccccc1N2C (centres unmarked) [Compound T4]	≤ 35%	E (E is ≦35%)	E (E is ≦35%)	≤ 35%	–	–	–	–	–
CCOc1cc(C(=O)N2CCCC(O)C2)ccc1Nc1cc2c(cn1)N(C)C(=O)c1ccccc1N2C (centres unmarked) [Compound 93]	–	–	–	–	–	–	–	–	inhibition at 1 µM (AurA; [1]): ≤ 35%; Kinase inhibition % at indicated screening concentration: AurB or AurC (AurB or AurC; screening concentration 1.0 μM): E (E is ≦35%); Kinase inhibition % at indicated screening concentration: AMPKa1 or AMPKa2 (AMPKa1 or AMPKa2; screening concentration 1.0 μM): E (E is ≦35%); inhibition at 1 µM (TAO2; [2]): ≤ 35%
CCOc1cc(C(=O)N2CC[C@@H](N3CCCCC3)C2)ccc1Nc1cc2c(cn1)N(C)C(=O)c1occc1N2C [Compound 56]	–	–	–	–	≤ 35%	E (E is ≦35%)	E (E is ≦35%)	≤ 35%	–
CCOc1cc(C(=O)N2CCN(C3CCN(C)CC3)CC2)ccc1Nc1cc2c(cn1)N(C)C(=O)c1ccccc1N2C [Compound T8]	≤ 35%	E (E is ≦35%)	E (E is ≦35%)	≤ 35%	–	–	–	–	–
CCOc1cc(C(=O)N2CCC[C@H](O)C2)ccc1Nc1cc2c(cn1)N(C)C(=O)c1ccccc1N2C [Compound 96]	–	–	–	–	≤ 35%	E (E is ≦35%)	E (E is ≦35%)	≤ 35%	–
CCOc1cc(C(=O)N2CCN(CC3CC3)CC2)ccc1Nc1cc2c(cn1)N(C)C(=O)c1ccccc1N2C [Compound 10]	–	–	–	–	≤ 35%	E (E is ≦35%)	E (E is ≦35%)	≤ 35%	–
CCOc1cc(C(=O)N2CCC(N3CCCC3)CC2)ccc1Nc1cc2c(cn1)N(C)C(=O)c1ccccc1N2C [Compound 46, 3-(2-Ethoxy-4-(4-(pyrrolidin-1-yl)piperidine-1-carbonyl)phenylamino)-5,11-dimethyl-5H-benzo[e]pyrido[3,4-b][1,4]diazepin-10(11H)-one]	–	–	–	–	–	–	–	–	inhibition at 1 µM (AurA; [1]): ≤ 35%; Kinase inhibition % at indicated screening concentration: AurB or AurC (AurB or AurC; screening concentration 1.0 μM): E (E is ≦35%); Kinase inhibition % at indicated screening concentration: AMPKa1 or AMPKa2 (AMPKa1 or AMPKa2; screening concentration 1.0 μM): E (E is ≦35%); inhibition at 1 µM (TAO2; [2]): ≤ 35%
CCOc1cc(C(=O)N2CCN(C(C)(C)C)CC2)ccc1Nc1cc2c(cn1)N(C)C(=O)c1ccccc1N2C [Compound 94]	–	–	–	–	≤ 35%	E (E is ≦35%)	E (E is ≦35%)	≤ 35%	–
CCOc1cc(C(=O)N2CCC(N3CCCC3)CC2)ccc1Nc1cc2c(cn1)N(C)C(=O)c1occc1N2C [Compound 91, 6-((2-Ethoxy-4-(4-(pyrrolidin-1-yl)piperidine-1-carbonyl)phenyl)amino)-4,9-dimethyl-4H-furo[3,2-e]pyrido[3,4-b][1,4]diazepin-10(9H)-one]	–	–	–	–	≤ 35%	E (E is ≦35%)	E (E is ≦35%)	≤ 35%	–
CN1C(=O)c2ccccc2N(C)c2cc(Nc3ccc(C(=O)N4CC[C@@H](N(C)C)C4)cc3F)ncc21 [Compound 110]	–	–	–	–	–	–	–	–	inhibition at 10 µM (AurA; screening concentration 10.0 μM, read-out: Kinase inhibition % at indicated screening concentration: AurA): 35 to 50%; Kinase inhibition % at indicated screening concentration: AurB or AurC (AurB or AurC; [7]): C (C is >50% to ≦75%); Kinase inhibition % at indicated screening concentration: AMPKa1 or AMPKa2 (AMPKa1 or AMPKa2; [7]): E (E is ≦35%); inhibition at 10 µM (TAO2; screening concentration 10.0 μM, read-out: Kinase inhibition % at indicated screening concentration: TAO2): 50 to 75%
CN1CCC(N2CCN(C(=O)c3ccc(Nc4cc5c(cn4)N(C)C(=O)c4ccccc4N5C)c(OC(F)F)c3)CC2)CC1 [Compound T76]	≤ 35%	E (E is ≦35%)	E (E is ≦35%)	≤ 35%	–	–	–	–	–
